From patent US6613792B1, “Treatment of premenstrual syndrome and menopause” (Designed Nutritional Products, Inc., priority 1999, dated 2003) come the findings set out here.

Data set [1] is described as follows: Reactivity/stability of 1H-indole-3-methanol in solvent, sunlight and heat (HPLC). Type of data set: physicochemical. The procedure:
Relatively pure 1H-indole-3-methanol (I3C™ from Designed Nutritional Products, Orem, Utah, U.S.) in a water solution was prepared for HPLC analysis. One sample was diluted with water and the other was diluted with methanol. […] In the course of manufacturing and formulating dietary supplements containing 1H-indole-3-methanol, it was observed that the carbinol in the three position is extremely reactive. […] In the course of heating at 60° C., 99% of the present 1H-indole-3-methanol will disappear from HPLC chromatograms, being replaced by as many as 40 or 50 different derived compounds, virtually all of them identified as containing an indole component. More detailed studies have shown that one of the first compounds to appear in a sample of 1H-indole-3-methanol undergoing heat treatment is ([…], a “dimer” of 1H-indole-3-methanol.

Another data set deals with menopausal symptoms. The data set is described as follows: Case report of a subject with menopausal symptoms taking I3C capsules. Type of data set: in vivo, human. The settings on record: Subject E. The protocol:
Capsules containing 100 to 300 mg of 1H-indole-3-methanol (I3C™ from Designed Nutritional Products, Orem, Utah, U.S.) were made by placing that amount of 1H-indole-3-methanol into gelatin capsules. […] After the hysterectomy, Subject E had menopausal symptoms including hot flashes, occasional sweating profusion, grogginess after a full night's sleep, and almost continuous irritable bowel syndrome. Subject E started taking four 100 mg capsules of I3C™ per day, two capsules in the morning and two capsules in the late afternoon. […] Their hot flashes and excessive sweating disappeared after taking a few doses of I3C™.

The test system of data set [2] is premenstrual syndrome (PMS) symptoms. Kind of data set: Case reports of subjects with premenstrual syndrome taking I3C capsules. Type of data set: in vivo, human. The protocol:
Capsules containing 100 to 300 mg of 1H-indole-3-methanol (I3C™ from Designed Nutritional Products, Orem, Utah, U.S.) were made by placing that amount of 1H-indole-3-methanol into gelatin capsules. Capsules containing 200 mg of 1H-indole-3-methanol (I3C™ from Designed Nutritional Products, Orem, Utah, U.S.) were made by placing that amount of 1H-indole-3-methanol into gelatin capsules. Subject A, commonly suffered from fatigue, moodiness, and bluish circles beneath their eyes prior to menstruation. During menses, which typically lasted for 7-10 days, they experienced menstrual cramping which required ibuprofen for relief. Subject A had taken I3C™ for three menstrual cycles. […] Subject B had taken I3C™ for one menstrual cycle. Their PMS symptoms prior to taking I3C™ included extreme fatigue, frequent migraine headaches, bloating, moodiness, and severe menstrual cramps. They started taking I3C™ with no knowledge of its effects or benefits. […] Subject C had been diagnosed and treated for endometriosis. Their PMS symptoms included fatigue, heavy blood flow (menorrhagia), severe menstrual cramps, and menses of approximately 10 days. Subject C had taken I3C™ for six cycles. […] Subject D, had taken I3C™ for ½ months and noticed a rapid change in their PMS symptoms.

Setting [3] is: Subject C, endometriosis, six cycles.

Take `OCc1c[nH]c2ccccc12` [I3C™, 1H-indole-3-methanol]: the “1H-indole-3-methanol disappearing from HPLC chromatograms on heating” value in data set [1] (heating at 60° C.) was 99%. The “stability in the presence of sunlight” value in data set [1] (sunlight) is listed as “change color in just a few hours”. The “HPLC peaks after dilution with methanol (reaction to methyl ether)” value in data set [1] (water solution diluted with methanol, by the time of injection) is “two peaks of about the same magnitude”. Further, the “HPLC peaks after dilution with water” value in data set [1] (water solution diluted with water) was “only one peak”. In addition, the “bowel, sleep and energy symptoms” value in the data set with menopausal symptoms (four 100 mg capsules per day for one month) was “bowel regularity, less sleep disturbances, and a steady energy level throughout the day”. The “hot flashes and excessive sweating” value in the data set on menopausal symptoms (partial hysterectomy, four 100 mg capsules per day, after a few doses) is “disappeared”. In data set [2] (Subject A, I3C taken for three menstrual cycles), the “PMS symptoms (fatigue, moodiness, bluish circles beneath eyes, menstrual cramping)” value is recorded as “the above symptoms were alleviated”. For the same molecule, the duration of menses result in data set [2] (Subject A, three menstrual cycles, typically 7-10 days before) is recorded as “approximately 4 days”. The “PMS symptoms (extreme fatigue, migraine headaches, bloating, moodiness, severe menstrual cramps)” value in data set [2] (Subject B, within one menstrual cycle) was “experienced only mild fatigue and their remaining symptoms were alleviated”. In addition, in data set [2] (Subject C, endometriosis, I3C taken for six cycles), the fatigue result is on record as “ceased”. Moreover, in data set [2] (setting [3]), the menstrual blood flow entry is recorded as “decreased substantially” and the “severity of menstrual cramps” value is reported as “decreased”. Further, in data set [2] (Subject C, restart after withdrawal), the “PMS symptoms after starting I3C again” value is “their symptoms were alleviated”. The duration of menses entry in data set [2] (Subject C, six cycles, approximately 10 days before) is given as “approximately 5 days”. Further, the “PMS symptoms after stopping I3C for one menstrual cycle” value in data set [2] (Subject C, withdrawal for one cycle) is given as “previous PMS symptoms returned”. Further, in data set [2] (Subject D, I3C taken for ½ months), the “PMS symptoms (bloating, headaches)” value was “less bloating and reduced headaches”.
